Source: patent US7803377B2, “Anti-DLL4 antibodies and methods using same” (Genentech, Inc., priority 2006, dated 2010)

Experiments:
murine Delta4 (ECD5.5) = biological target: T1, murine Delta4 (ECD5.5) (Mus musculus, UniProt Q9JI71); assay: Surface plasmon resonance (BIAcore-3000) binding affinity and kinetics; settings: murine DLL4-His; Kd calculated as koff/kon
T1 construct: murine Delta4 (ECD5.5); His
Procedure: (§1) To determine the binding affinity of the anti-DLL4 Mabs, surface plasmon resonance (SRP) measurement with a BIAcore™-3000 was used (BIAcore, Inc., Piscataway, N.J.). Briefly, carboxymethylated dextran biosensor chips (CM5, BIAcore Inc.) were activated with N-ethyl-N′-(3-dimethylaminopropyl)-carbodiimide hydrochloride (EDC) and N-hydroxysuccinimide (NHS) according to the supplier's instructions. Anti-DLL4 antibody was diluted with 10 mM sodium acetate, pH 4.8, into 5 μg/ml before injection at a flow rate of 5 μl/minute to achieve approximately 500 response units (RU) of coupled antibody. Next, IM ethanolamine was injected to block unreacted groups. For kinetics measurements, two-fold serial dilutions of either human or murine DLL4-His molecules (0.7 nM to 500 nM) were injected in PBS with 0.05% Tween™ 20 at 25° C. at a flow rate of 25 μl/min. Association rates (kon) and dissociation rates (koff) were calculated using a simple one-to-one Langmuir binding model (BIAcore Evaluation Software version 3.2). The equilibrium dissociation constant (Kd) was calculated as the ratio koff/kon.

human Delta4 (ECD5.5) = biological target: T2, human Delta4 (ECD5.5) (Homo sapiens, UniProt Q9NR61); assay: as above; settings: human DLL4-His; Kd calculated as koff/kon; listed as YW26.81
T2 construct: DLL4-His (C-terminal His-tagged human DLL4, amino acid 1-404); His (C)
Procedure: as §1

HUVECs = assay: HUVEC fibrin gel bead assay; assay type: cell-based, human; settings: anti-DLL4 antibody 5 μg/ml, DBZ 0.08 μM
Procedure: HUVEC fibrin gel bead assay. Details of the HUVEC fibrin gel bead assay have been described (Nakatsu, M. N. et al. Microvasc Res 66, 102-12 (2003)). Briefly, Cytodex™ 3 beads (Amersham Pharmacia Biotech) were coated with 350-400 HUVECs per bead. About 200 HUVEC-coated beads were imbedded in fibrin clot in one well of 12-well tissue culture plate. 8×10^4 SF cells were plated on top of the clot. Assays were terminated between day 7 and day 9 for immunostaining and imaging. In some experiments, HUVEC sprouts were visualized by staining with Biotin-anti-CD31 (clone WM59, eBioscience) and strepavidin-Cy3. For HUVEC nuclei staining, fibrin gels were fixed overnight in 2% paraformaldehyde (PFA), and stained with 4′,6-diamidino-2-phenylindole (DAPI, Sigma). For Ki67 staining, fibrin gels were treated with 10× trypsin-EDTA for 5 min to remove the top layer SF, neutralized with 10% FBS in PBS, and fixed overnight in 4% PFA. Fibrin gels were then blocked with 10% goat serum in PBST for 4 hr, incubated overnight with rabbit anti-mouse Ki67 (Ready-To-Use, clone Sp6, LabVision), followed by secondary detection with anti-rabbit IgG-Cy3 (Jackson ImmunoResearch). All overnight incubations were done at 4° C. […]

[1] = test system: mouse lung cancer LL2 cells; assay: Tumor model LL2; assay type: in vivo; settings: 5 mg/kg, IP, twice weekly after establishment of the tumors
Procedure: Tumor models. Beige nude female mice of 8- to 10-week-old were used. To obtain subcutaneous tumors, mice were injected with 0.1 ml cell suspension containing 50% matrigel (BD Bioscience) into the right posterior flank. 5×10^6 human colon cancer HM7 cells, 10×10^6 human colon carcinoma Colo205 cells, 10×10^6 human lung carcinoma Calu6 cells, 10×10^6 human lung carcinoma MV-522 cells, 10×10^6 mouse leukemia WEHI-3 cells, 10×10^6 mouse lymphoma EL4 cells, 10×10^6 human ovarian cancer SK-OV-3 X1 cells, 10×06 mouse lung cancer LL2 cells, 10×10^6 leukemia/lymphoma EL4 cells, or 10×10^6 non-small lung cancer H1299 cells were injected into each mouse. For human melanoma MDA-MB-435 model, mice were injected into the mammary fat pad with 0.1 ml cell (5×10^6) suspension containing 50% matrigel. […] For the following tumor models, each test mouse received a subcutaneous tumor fragment (1 mm^3) implanted in the right flank: non-small lung cancer SKMES-1, human breast cancer MX-1, human colorectal cancer SW620 and human adenocarcinoma LS174T. The tumor growth was quantitated by caliper measurements. Tumor volume (mm^3) was determined by measuring the length (l) and width (w) and calculating the volume (V=lw2/2). 10 to 15 animals were included in each group. Statistical comparison of treatment groups was performed using two-tailed Student's t-test. […]

T1 sequence (Q9JI71 27-405 limits assumed): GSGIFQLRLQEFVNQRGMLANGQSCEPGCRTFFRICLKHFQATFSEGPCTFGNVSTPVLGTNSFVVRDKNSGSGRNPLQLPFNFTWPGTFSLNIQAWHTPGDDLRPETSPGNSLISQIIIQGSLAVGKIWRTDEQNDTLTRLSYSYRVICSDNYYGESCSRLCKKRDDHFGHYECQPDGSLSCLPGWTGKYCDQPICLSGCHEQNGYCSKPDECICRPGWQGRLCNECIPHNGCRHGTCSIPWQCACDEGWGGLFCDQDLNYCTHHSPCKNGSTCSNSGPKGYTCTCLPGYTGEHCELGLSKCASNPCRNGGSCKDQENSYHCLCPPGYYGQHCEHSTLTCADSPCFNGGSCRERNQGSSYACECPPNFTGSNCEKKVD
T2 sequence (Q9NR61 27-404): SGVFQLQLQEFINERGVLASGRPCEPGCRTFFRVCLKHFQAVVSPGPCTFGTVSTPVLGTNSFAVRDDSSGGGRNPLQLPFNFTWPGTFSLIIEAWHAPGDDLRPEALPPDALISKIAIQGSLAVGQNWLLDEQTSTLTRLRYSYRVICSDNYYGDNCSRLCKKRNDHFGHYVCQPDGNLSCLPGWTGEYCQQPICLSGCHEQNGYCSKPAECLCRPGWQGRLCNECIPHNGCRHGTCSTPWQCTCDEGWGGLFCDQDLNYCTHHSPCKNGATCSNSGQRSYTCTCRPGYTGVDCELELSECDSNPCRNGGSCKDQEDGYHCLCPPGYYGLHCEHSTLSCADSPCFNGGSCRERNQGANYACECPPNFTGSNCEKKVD

YW26.82: affinity matured anti-DLL4 monoclonal antibody; HVR-H1/H2/H3 SEQ ID NO:1, 8, 9; HVR-L1/L2/L3 SEQ ID NO:10, 11, 18
Kd (murine Delta4 (ECD5.5)): 0.09 nM
Kd (human Delta4 (ECD5.5)): 0.1 nM
HUVEC sprouting (length and number of sprouts) (HUVECs; fibrin gel with co-cultured SF cells): markedly increased the length and number of sprouts
Ki67 staining, HUVEC proliferation (HUVECs; fibrin gel): caused hyperproliferation of HUVECs
tumor growth, single agent [1]: inhibited tumor growth alone
